Experimental data taken from patent publication US8481528B2 (Hoffmann-La Roche Inc., priority 2010, dated 2013).

target: T1, human V1a receptor (Homo sapiens, UniProt P37288); test: human V1a receptor binding (3H-Vasopressin SPA, HEK293 membranes); details: not given
T1 construct: expressed in transfected cells; host or cells: HEK293 cells, transiently transfected; cell membranes
Experimental: The human V1a receptor was cloned by RT-PCR from total human liver RNA. The coding sequence was subcloned in an expression vector after sequencing to confirm the identity of the amplified sequence. […] Cell membranes were prepared from HEK293 cells transiently transfected with the expression vector and grown in 20 liter fermenters with the following protocol.
50 g of cells are resuspended in 30 ml freshly prepared ice cold Lysis buffer (50 mM HEPES, 1 mM EDTA, 10 mM magnesium dichloride adjusted to pH=7.4+complete cocktail of protease inhibitor (Roche Diagnostics)). Homogenized with Polytron for 1 min and sonicated on ice for 2×2 minutes at 80% intensity (Vibracell sonicator). The preparation is centrifuged 20 min at 500 g at 4° C., the pellet is discarded and the supernatant centrifuged 1 hour at 43′000 g at 4° C. (19'000 rpm). The pellet is resuspended in 12.5 ml Lysis buffer+12.5 ml sucrose 20% and homogenized using a Polytron for 1-2 min. The protein concentration is determined by the Bradford method and aliquots are stored at −80° C. until use. For binding studies 60 mg Yttrium silicate SPA beads (Amersham®) are mixed with an aliquot of membrane in binding buffer (50 mM Tris, 120 mM sodium chloride, 5 mM potassium chloride, 2 mM calcium dichloride, 10 mM magnesium dichloride) for 15 minutes with mixing. 50 μl of bead/membrane mixture is then added to each well of a 96 well plate, followed by 50 μl of 4 nM 3H-Vasopressin (American Radiolabeled Chemicals). For total binding measurement 100 μl of binding buffer are added to the respective wells, for non-specific binding 100 μl of 8.4 mM cold vasopressin and for compound testing 100 μl of a serial dilution of each compound in 2% dimethyl sulfoxide. The plate is incubated 1 h at room temperature, centrifuged 1 min at 1000 g and counted on a Packard Top-Count. Non-specific binding counts are subtracted from each well and data is normalized to the maximum specific binding set at 100%. To calculate an IC50 the curve is fitted using a non-linear regression model (XLfit) and the Ki is calculated using the Cheng-Prussoff equation.

T1 sequence (P37288 whole entry): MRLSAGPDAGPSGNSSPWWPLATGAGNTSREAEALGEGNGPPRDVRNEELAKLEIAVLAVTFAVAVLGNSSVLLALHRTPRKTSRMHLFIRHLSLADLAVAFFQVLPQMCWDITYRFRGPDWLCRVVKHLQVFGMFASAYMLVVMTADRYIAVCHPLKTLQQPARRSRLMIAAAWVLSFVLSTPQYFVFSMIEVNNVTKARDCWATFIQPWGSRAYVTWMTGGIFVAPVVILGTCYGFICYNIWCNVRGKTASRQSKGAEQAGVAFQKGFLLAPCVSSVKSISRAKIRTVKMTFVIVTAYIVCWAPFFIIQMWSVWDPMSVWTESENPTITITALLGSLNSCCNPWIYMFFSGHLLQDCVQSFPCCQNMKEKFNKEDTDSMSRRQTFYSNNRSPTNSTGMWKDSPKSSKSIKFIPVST

Question: Clc1ccc2c(c1)CNCc1nnc([C@H]3CC[C@@H](c4nsc5ccccc54)CC3)n1-2 [Example 34, cis-1-(4-Benzo[d]isothiazol-3-yl-cyclohexyl)-8-chloro-5,6-dihydro-4H-2,3,5,10b-tetraaza-benzo[e]azulene] was tested. Which Ki did it give?
Answer: 25.7 nM

same assay, conditions: 3H-Vasopressin displacement, membranes of HEK293 cells transiently transfected with human V1a receptor; Ki by Cheng-Prusoff; read-out: pKi (hV1a) (converted)

Question: How did the Ki turn out when CC(C)(C)OC(=O)N1Cc2cc(Cl)ccc2-n2c(nnc2[C@H]2CC[C@H](c3nsc4cccnc43)CC2)C1 [Example 27, trans-8-Chloro-1-(4-isothiazolo[4,5-b]pyridin-3-yl-cyclohexyl)-4H,6H-2,3,5,10b-tetraaza-benzo[e]azulene-5-carboxylic acid tert-butyl ester] was run?
Answer: 4.27 nM

Question: With Clc1ccc2c(c1)CNCc1nnc([C@H]3CC[C@H](c4nsc5cccnc54)CC3)n1-2 [Example 28, trans-8-Chloro-1-(4-isothiazolo[4,5-b]pyridin-3-yl-cyclohexyl)-5,6-dihydro-4H-2,3,5,10b-tetraaza-benzo[e]azulene] as the compound, how does the Ki read?
Answer: 1.1 nM

Question: With CN1Cc2cc(Cl)ccc2-n2c(nnc2[C@H]2CC[C@H](c3nsc4cccnc43)CC2)C1 [Example 29, trans-8-Chloro-1-(4-isothiazolo[4,5-b]pyridin-3-yl-cyclohexyl)-5-methyl-5,6-dihydro-4H-2,3,5,10b-tetraaza-benzo[e]azulene] as the compound, how does the Ki read?
Answer: 0.794 nM

Question: CC(C)(C)OC(=O)N1Cc2cc(Cl)ccc2-n2c(nnc2[C@H]2CC[C@H](c3nsc4cnccc43)CC2)C1 [Example 30] was tested. Which Ki did it give?
Answer: 5.5 nM

Question: With Clc1ccc2c(c1)CNCc1nnc([C@H]3CC[C@H](c4nsc5cnccc54)CC3)n1-2 [Example 31, trans-8-Chloro-1-(4-isothiazolo[5,4-c]pyridin-3-yl-cyclohexyl)-5,6-dihydro-4H-2,3,5,10b-tetraaza-benzo[e]azulene] as the compound, how does the Ki read?
Answer: 2.57 nM

Question: CN1Cc2cc(Cl)ccc2-n2c(nnc2[C@H]2CC[C@H](c3nsc4cnccc43)CC2)C1 [Example 32] was tested. Which Ki did it give?
Answer: 0.891 nM

Question: With CC(C)(C)OC(=O)N1Cc2cc(Cl)ccc2-n2c(nnc2[C@H]2CC[C@@H](c3nsc4ccccc43)CC2)C1 [Example 33, cis-1-(4-Benzo[d]isothiazol-3-yl-cyclohexyl)-8-chloro-4H,6H-2,3,5,10b-tetraaza-benzo[e]azulene-5-carboxylic acid tert-butyl ester] as the compound, how does the Ki read?
Answer: 1.1 nM

Question: CN1Cc2cc(Cl)ccc2-n2c(nnc2[C@H]2CC[C@@H](c3nsc4ccccc43)CC2)C1 [Example 35, cis-1-(4-Benzo[d]isothiazol-3-yl-cyclohexyl)-8-chloro-5-methyl-5,6-dihydro-4H-2,3,5,10b-tetraaza-benzo[e]azulene] was tested. Which Ki did it give?
Answer: 4.27 nM
